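A five-concentration, 48-hour dose response in 96-well plates underlies each endpoint, interpolated linearly between surrounding concentrations. GI50 = concentration required for 50% inhibition of growth.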 The source made the active and inactive calls. Cut-off read from the data, not from the text of the source: active = GI50 up to about 1.1 µM and inactive = higher.
Experiments:
Assay in all cases: growth of human tumour cells (NCI), 48 h
786-0 = test system: 786-0
A498 = test system: A498
A549 = test system: A549
ACHN = test system: ACHN
BT-549 = test system: BT-549
CAKI-1 = test system: CAKI-1
CCRF-CEM = test system: CCRF-CEM
COLO 205 = test system: COLO 205
DU-145 = test system: DU-145
EKVX = test system: EKVX
HCC 2998 = test system: HCC 2998
HCT-116 = test system: HCT-116
HL-60 = test system: HL-60
HOP-62 = test system: HOP-62
HOP-92 = test system: HOP-92
HT-29 = test system: HT-29
Hs-578T = test system: Hs-578T
IGROV-1 = test system: IGROV-1
K562 = test system: K562
KM12 = test system: KM12
LOX IMVI = test system: LOX IMVI
M14 = test system: M14
MCF7 = test system: MCF7
MDA-MB-231 = test system: MDA-MB-231
MDA-MB-435 = test system: MDA-MB-435
MDA-N = test system: MDA-N
MOLT-4 = test system: MOLT-4
Malme-3M = test system: Malme-3M
NCI-H226 = test system: NCI-H226
NCI-H23 = test system: NCI-H23
NCI-H460 = test system: NCI-H460
NCI-H522 = test system: NCI-H522
NCI/ADR-RES = test system: NCI/ADR-RES
OVCAR-3 = test system: OVCAR-3
OVCAR-4 = test system: OVCAR-4
OVCAR-5 = test system: OVCAR-5
OVCAR-8 = test system: OVCAR-8
PC-3 = test system: PC-3
RPMI-8226 = test system: RPMI-8226
RXF 393 = test system: RXF 393
SF-268 = test system: SF-268
SF-295 = test system: SF-295
SF-539 = test system: SF-539
SK-MEL-28 = test system: SK-MEL-28
SK-MEL-5 = test system: SK-MEL-5
SK-OV-3 = test system: SK-OV-3
SN12C = test system: SN12C
SNB-19 = test system: SNB-19
SNB-75 = test system: SNB-75
SR = test system: SR
SW-620 = test system: SW-620
T47D = test system: T47D
TK-10 = test system: TK-10
U-251 = test system: U-251
UACC-257 = test system: UACC-257
UACC-62 = test system: UACC-62
UO-31 = test system: UO-31
HCT-15 = test system: HCT-15
SK-MEL-2 = test system: SK-MEL-2

O=C(O)c1cc(O)c2c(c1)C([C@@H]1c3cccc(O)c3C(=O)c3c(O)cc(C(=O)O)cc31)c1cccc(O)c1C2=O (some centres undefined)
GI50 (786-0): 51.5 µM (inactive)
GI50 (A498): 22.7 µM (inactive)
GI50 (A549): > 100 µM (inactive)
GI50 (ACHN): 81.5 µM (inactive)
GI50 (BT-549): 51.1 µM (inactive)
GI50 (CAKI-1): > 100 µM (inactive)
GI50 (CCRF-CEM): 30.5 µM (inactive)
GI50 (COLO 205): > 100 µM (inactive)
GI50 (DU-145): > 100 µM (inactive)
GI50 (EKVX): 37.2 µM (inactive)
GI50 (HCC 2998): 47.4 µM (inactive)
GI50 (HCT-116): 20.4 µM (inactive)
GI50 (HL-60): 29.9 µM (inactive)
GI50 (HOP-62): > 10 µM (inactive)
GI50 (HOP-92): 23.2 µM (inactive)
GI50 (HT-29): 96.2 µM (inactive)
GI50 (Hs-578T): 24.9 µM (inactive)
GI50 (IGROV-1): 22.9 µM (inactive)
GI50 (K562): 23.8 µM (inactive)
GI50 (KM12): 20.5 µM (inactive)
GI50 (LOX IMVI): 15.8 µM (inactive)
GI50 (M14): > 10 µM (inactive)
GI50 (MCF7): 37 µM (inactive)
GI50 (MDA-MB-231): 23.5 µM (inactive)
GI50 (MDA-MB-435): 24.6 µM (inactive)
GI50 (MDA-N): 20.3 µM (inactive)
GI50 (MOLT-4): 20.7 µM (inactive)
GI50 (Malme-3M): 23.7 µM (inactive)
GI50 (NCI-H226): 33.7 µM (inactive)
GI50 (NCI-H23): 30.4 µM (inactive)
GI50 (NCI-H460): > 100 µM (inactive)
GI50 (NCI-H522): 19.7 µM (inactive)
GI50 (NCI/ADR-RES): 43.8 µM (inactive)
GI50 (OVCAR-3): 66.5 µM (inactive)
GI50 (OVCAR-4): > 100 µM (inactive)
GI50 (OVCAR-5): > 100 µM (inactive)
GI50 (OVCAR-8): 33.4 µM (inactive)
GI50 (PC-3): 36.1 µM (inactive)
GI50 (RPMI-8226): 32.9 µM (inactive)
GI50 (RXF 393): 28.2 µM (inactive)
GI50 (SF-268): 31.4 µM (inactive)
GI50 (SF-295): 34.7 µM (inactive)
GI50 (SF-539): 19.5 µM (inactive)
GI50 (SK-MEL-28): 33.2 µM (inactive)
GI50 (SK-MEL-5): 17.6 µM (inactive)
GI50 (SK-OV-3): > 100 µM (inactive)
GI50 (SN12C): 34.7 µM (inactive)
GI50 (SNB-19): 57 µM (inactive)
GI50 (SNB-75): 25.3 µM (inactive)
GI50 (SR): 39.3 µM (inactive)
GI50 (SW-620): 35.4 µM (inactive)
GI50 (T47D): 59.6 µM (inactive)
GI50 (TK-10): 99.1 µM (inactive)
GI50 (U-251): 25.4 µM (inactive)
GI50 (UACC-257): 35.5 µM (inactive)
GI50 (UACC-62): 31 µM (inactive)
GI50 (UO-31): > 100 µM (inactive)

COC(=O)c1ccccc1NC(=O)/C(=N\NC(C)(C)C)C(C#N)c1nc(-c2ccc([N+](=O)[O-])cc2)cs1 (centres undefined)
GI50 (786-0): > 100 µM (inactive)
GI50 (A498): > 100 µM (inactive)
GI50 (A549): > 100 µM (inactive)
GI50 (ACHN): > 100 µM (inactive)
GI50 (BT-549): > 100 µM (inactive)
GI50 (CAKI-1): > 100 µM (inactive)
GI50 (CCRF-CEM): > 100 µM (inactive)
GI50 (COLO 205): > 100 µM (inactive)
GI50 (DU-145): > 100 µM (inactive)
GI50 (EKVX): > 100 µM (inactive)
GI50 (HCC 2998): > 100 µM (inactive)
GI50 (HCT-116): > 100 µM (inactive)
GI50 (HCT-15): > 100 µM
GI50 (HL-60): > 100 µM (inactive)
GI50 (HOP-92): > 100 µM (inactive)
GI50 (HT-29): > 100 µM (inactive)
GI50 (Hs-578T): > 100 µM (inactive)
GI50 (IGROV-1): > 100 µM (inactive)
GI50 (K562): > 100 µM (inactive)
GI50 (KM12): > 100 µM (inactive)
GI50 (LOX IMVI): > 100 µM (inactive)
GI50 (M14): > 100 µM (inactive)
GI50 (MCF7): > 100 µM (inactive)
GI50 (MDA-MB-231): > 100 µM (inactive)
GI50 (MDA-MB-435): > 100 µM (inactive)
GI50 (MDA-N): > 100 µM (inactive)
GI50 (MOLT-4): > 100 µM (inactive)
GI50 (Malme-3M): > 100 µM (inactive)
GI50 (NCI-H226): > 100 µM (inactive)
GI50 (NCI-H23): > 100 µM (inactive)
GI50 (NCI-H460): > 100 µM (inactive)
GI50 (NCI-H522): > 10 µM (inactive)
GI50 (NCI/ADR-RES): > 100 µM (inactive)
GI50 (OVCAR-3): > 100 µM (inactive)
GI50 (OVCAR-4): > 100 µM (inactive)
GI50 (OVCAR-5): > 100 µM (inactive)
GI50 (OVCAR-8): > 100 µM (inactive)
GI50 (PC-3): > 100 µM (inactive)
GI50 (RPMI-8226): > 100 µM (inactive)
GI50 (RXF 393): > 100 µM (inactive)
GI50 (SF-268): > 100 µM (inactive)
GI50 (SF-295): > 100 µM (inactive)
GI50 (SF-539): > 100 µM (inactive)
GI50 (SK-MEL-28): > 100 µM (inactive)
GI50 (SK-MEL-2): > 100 µM (inactive)
GI50 (SK-MEL-5): > 100 µM (inactive)
GI50 (SK-OV-3): > 100 µM (inactive)
GI50 (SN12C): > 100 µM (inactive)
GI50 (SNB-19): > 100 µM (inactive)
GI50 (SNB-75): > 100 µM (inactive)
GI50 (SR): > 100 µM (inactive)
GI50 (SW-620): > 100 µM (inactive)
GI50 (T47D): > 100 µM (inactive)
GI50 (U-251): > 100 µM (inactive)
GI50 (UACC-257): > 100 µM (inactive)
GI50 (UACC-62): > 100 µM (inactive)
GI50 (UO-31): > 100 µM (inactive)

— ChEMBL document CHEMBL1201862, “PubChem BioAssay data set” (2004)
